From patent US10525032B2, “Antimicrobial compositions comprising mupirocin and neomycin” (University of Rochester, priority 2015, dated 2020)
Where two headings read alike, the source gives them in different places.

How the values were obtained:
[1] = test system: S. aureus strain UAMS-1; experiment: Minimum inhibitory concentration (MIC) testing, CLSI microtiter, with or without mupirocin; type: cell-based, Staphylococcus aureus; conditions: for MIC: Staphylococcus aureus
Experimental: Screen of Selleck Library. Members of the Selleck Library of Food and Drug […] approved drugs (Selleck Chemicals, Houston Tex., L1300) were screened for agents that potentiate the antimicrobial activity of mupirocin toward S. aureus strain UAMS-1. To do so, 1×10^5 colony forming units of UAMS-1 were added to individual wells of a 96-well microtiter plate, mixed with 0.03 μg/mL mupirocin (0.5× minimum inhibitory concentration) and 50 μM of test agent in Mueller Hinton broth (MHB; 100 μL total well volume). Microtiter plates were incubated at 37° C. for 16 hr, and individual wells were inspected for growth. Wells lacking growth were considered to represent agents that either potentiated the antimicrobial properties of mupirocin or mupirocin-independent antimicrobial microbial properties.
(§1) Antimicrobial Susceptibility Testing. Minimum inhibitory concentration (MIC) was tested in accordance with the Clinical and Laboratory Standards Institute (CLSI) guidelines. Briefly, 1×10^5 CFU of the indicated S. aureus strain was added to individual wells of a microtiter plate containing 88 μL of MHB media and two-fold increasing concentrations of mupirocin or test agent (0-128 μg ml^−1). Plates were incubated for 16 hr at 37° C. and wells were visually inspected for growth. The lowest concentration of mupirocin or test agent that inhibited S. aureus growth was considered to be the minimum inhibitory concentration. Fractional inhibitory concentration index (FIC) testing was performed to measure interactions between mupirocin and neomycin, as previously described. See Odds F C. 2003. Synergy, antagonism, and what the chequerboard puts between them. The Journal of antimicrobial chemotherapy 52:1. Briefly, in checkerboard format each row of the plate contained increasing concentrations of mupirocin (2-fold increments; 0-0.5 μg/mL), whereas each column contained increasing concentrations of neomycin (2-fold increments; 0-32 μg/mL). To every well (100 μl total volume) MHB containing 3×10^5 CFU of S. aureus strain UAMS-1 was added and the plate was incubated at 37° C. overnight (16-20 hr). The FIC was determined using the following formula: (MIC of Drug A in Combination/MIC of Drug A Alone)+(MIC of Drug B in Combination/MIC of Drug B Alone)=FIC. A synergistic interaction was defined as an FIC value≤0.5, additive as FIC value 0.5-1.0, no interaction as an FIC of 1-4, or an antagonistic interaction FIC>4.
Members of the Selleck library of 853 FDA approved drugs were screened for agents that potentiate the activity of mupirocin. […] Conversely, the antimicrobial activity of Nitazoxanide, Nitrofurazone, and Neomycin sulfate, increased in the presence of mupirocin.

[2] = test system: S. aureus strain UAMS-1; experiment: Fractional inhibitory concentration index (FIC) checkerboard testing with mupirocin; type: cell-based, Staphylococcus aureus; conditions: combined with mupirocin, additive = 0.5-1.0
Experimental: as §1

[3] = test system: S. aureus RNase P; experiment: RNase P ptRNA processing assay; type: biochemical, Staphylococcus aureus; conditions: 250 μM, in vitro
Experimental: RNase P ptRNA Processing Assay. S. aureus RNase P activity assays were performed as previously described. See Eidem T M, Lounsbury N, Emery J F, Bulger J, Smith A, Abou-Gharbia M, Childers W, Dunman P M. 2015. Small-molecule inhibitors of Staphylococcus aureus RnpA-mediated RNA turnover and tRNA processing. Antimicrob Agents Chemother 59:2016-2028. Briefly, RNase P was first reconstituted by mixing an equimolar ratio of denatured rnpB and RnpA for 15 min at 37° C. then added (5 pmol) to 10 pmol of ptRNA^Tyr, and increasing concentrations of the indicated concentration of neomycin or the known RNase P inhibitor, RNPA2000 in a total volume of 20 μl. […] A FluorChem 5500 imaging system was used to visualize RNA products and quantified using ImageJ software (National Institutes of Health, Bethesda Md.). The percent RNase P activity was then calculated using the following equation: test compound tRNA^Tyr signal/mock tRNA^Tyr signal.
Aminoglycoside antibiotics, such has neomycin, contain a central deoxystreptamine ring decorated with amino-sugar modifications and act by binding to the major groove of the 16S rRNA to disrupt the fidelity of tRNA selection and block protein translation. […] A real-time fluorescence polarization activity assay to screen for inhibitors of bacterial ribonuclease P. Nucleic acids research 42:e159.

[4] = test system: USA300; experiment: MIC testing; type: cell-based, Staphylococcus aureus; conditions: USA300, data not shown
Experimental: as §1, with “To every well (100 μl total volume) MHB containing 3×10^5 CFU of S. aureus strain UAMS-1 was added and the plate was incubated at 37° C. overnight (16-20 hr).” left out, “A synergistic interaction was defined as an FIC value≤0.5, additive as FIC value 0.5-1.0, no interaction as an FIC of 1-4, or an antagonistic interaction FIC>4.” left out

[5] = test system: S. aureus strain UAMS-1; type: in vivo, Staphylococcus aureus; conditions: Balb-c mice
Experimental: Nasal Colonization and Treatment of Mice. Ointments were evaluated for in vivo antimicrobial activity using a S. aureus nasal colonization model as previously described, but with modifications. See Kiser K B, Cantey-Kiser J M, Lee J C. 1999. Development and characterization of a Staphylococcus aureus nasal colonization model in mice. Infect Immun 67:5001-5006. The nostrils of awake mice were inoculated with 1×10^7 of the indicated S. aureus strain by pipetting 10 μL of culture directly into the nostrils and confirmed by the visualization of air bubbles appearing as the mouse breathed in and out. Mice nostrils were then treated with 10 μL PEG ointment (brought to 55° C. in a heat block to liquefy) containing either vehicle alone or the indicated antibiotic 45 min post inoculation and treatments were repeated every 8 hr for three days. […]
A murine model of S. aureus nasal colonization was used to compare the antimicrobial efficacy of mupirocin, neomycin, and the two agents when applied in combination. To do so, the nasal passage of Balb-c mice were inoculated with ˜1×10^7 colony forming units of S. aureus then treated three times a day for a total of three days, at which point the bacterial burden was measured and the antibiotic susceptibility of ten isolates from each animal was measured by MIC testing.

[6] = test system: S. aureus strain UAMS-1; experiment: Murine dermal wound model of infection; type: in vivo, Staphylococcus aureus
Experimental: Dermal Wound Model of Infection and Treatment of Mice. The effects of ointment compilations were evaluated for in vivo antimicrobial activity using a S. aureus dermal wound model, but with modifications. See Guthrie K M, Agarwal A, Tackes D S, Johnson K W, Abbott N L, Murphy C J, Czuprynski C J, Kierski P R, Schurr M J, McAnulty J F. 2012. Antibacterial efficacy of silver-impregnated polyelectrolyte multilayers immobilized on a biological dressing in a murine wound infection model. Annals of surgery 256:371-377. Mice were anesthetized by intraperitoneal injection with a mixture of 100 mg ml^−1 Ketamine (Hospira Inc., Lake Forest Ill.) and 20 mg ml^−1 Xylazine (Lloyd Laboratories, Shenandoah Iowa) in NaCl at five μ1 per 1 g body weight. Pain relief in the form of 20 μL 0.5% Sensorcaine (APP Pharmaceuticals, Schaumburg, Ill.) was administered prior to dermal wounding. […]
To do so, a dermal wound was created on the back of Balb-c mice, inoculated with either S. aureus strain UAMS-1, USA300, or BAA-1708, and then treated with test agent suspended in PEG-based ointment twice a day for a total of 3 days, at which point bacterial burden was measured.

[7] = test system: S. aureus strain UAMS-1; conditions: previous studies; cited from earlier work
[8] = test system: strain BAA-1708; experiment: MIC testing; type: cell-based; conditions: Staphylococcus aureus, BAA1708; BAA-1708 (mupA), data not shown
Experimental: as §1, with “To every well (100 μl total volume) MHB containing 3×10^5 CFU of S. aureus strain UAMS-1 was added and the plate was incubated at 37° C. overnight (16-20 hr).” left out, “A synergistic interaction was defined as an FIC value≤0.5, additive as FIC value 0.5-1.0, no interaction as an FIC of 1-4, or an antagonistic interaction FIC>4.” left out

[9] = UAMS1, medium containing 0.25× the strain's mupirocin MIC, UAMS-1, read-out: MIC (+) Mup.
[10] = UAMS1, read-out: MIC (−) Mup., medium lacking mupirocin, UAMS-1

Compound: neomycin
- MIC (+) Mup. ([1]; medium containing 0.25× the strain's mupirocin MIC, UAMS-1): 0.25 µg/mL
- MIC (−) Mup. ([1]; medium lacking mupirocin, UAMS-1): 0.5 µg/mL
- Fractional Inhibitory Concentration Index [2]: 0.75
- inhibition of RNase P-catalyzed maturation of precursor tRNA^Tyr [3]: inhibit
- MIC [4]: 128 µg/mL

Compound: CC(C)c1ccc(OCC(=O)NNC(=S)NC(=O)c2ccco2)cc1 [RNPA2000]
- nasal decolonization (in words) [5]: does not exhibit antimicrobial activity
- wound decolonization (in words) [6]: does not exhibit antimicrobial activity
- FIC measures with mupirocin [7]: < 0.5

Compound: CC(=O)Oc1ccccc1C(=O)Nc1ncc([N+](=O)[O-])s1 [Nitazoxanide]
- MIC [1, 9]: 8 µg/mL
- MIC [1, 10]: 16 µg/mL
- Fractional Inhibitory Concentration Index [2]: 0.75

Compound: C/C(=C\C(=O)OCCCCCCCCC(=O)O)C[C@@H]1OC[C@H](C[C@@H]2O[C@H]2[C@@H](C)[C@H](C)O)[C@@H](O)[C@H]1O [mupirocin]
- MIC ([1]; UAMS1, UAMS-1 isolates from two 2% mupirocin treated mice with higher nasal burdens): 0.5 µg/mL
- MIC ([1]; UAMS1, inoculating strain UAMS-1 and isolates from the other animals of the 2% mupirocin nasal treatment group): 0.125 µg/mL
- MIC ([1]; UAMS1, read-out: mupirocin minimum inhibitory concentration (MIC), UAMS-1, as stated for the library screen): 0.3 µg/mL
- increase in mupirocin tolerance ([1]; isolates from two higher-burden mice versus inoculating strain): 4 fold
- MIC [8]: > 256 µg/mL

Compound: NC(=O)N/N=C/c1ccc([N+](=O)[O-])o1 [Nitrofurazone]
- MIC [1, 9]: 8 µg/mL
- MIC [1, 10]: 16 µg/mL
- Fractional Inhibitory Concentration Index [2]: 0.75
